Entries after “also recorded” stand apart in the source; their conditions may differ.

The source of these data is patent US11668702B2, “Regulation of fungal fruiting body development” (The Chinese University of Hong Kong, priority 2017, dated 2023).

One data set relates to C. cinerea. As to the kind of experiment: Fruiting body development of C. cinerea on YMG agar with LiCl in or under the agar.
The next data set concerns Pleurotus djamor. As to the kind of experiment: Self-healing ability and stability of mycelium blocks. As to conditions: 2 g/L LiCl in substrate; following 30 days. The protocol: FIG. 8: Comparison of the self-healing ability between the mycelium blocks treated by heating and LiCl. The two group of mycelium blocks (e.g., Pleurotus djamor blocks) were broken in the middle. In each group, 3 blocks were spread with the solution of YMG broth and the other 3 blocks with ddH2O on the broken sites. The two parts of one block were incubated together for 3 days.
The self-healing ability and stability of the living material is tested by comparison of the self-healing ability between the mycelium blocks treated by heating and LiCl. To prepare the demo mycelium blocks, water (as in group “Heat”) or 2 g/L LiCl water solution (as in group “Lithium”), sawdust, wheat bran and calcium carbonate were mixed as substrate and autoclaved the substrate. Then the Pleurotus djamor was inoculated to the substrate, and incubated under 27° C. continuous dark for 7 days. Then 30 g of the mixture of mycelium and substrate were transferred into molds of block, with same volume and pressure. The blocks were incubated under 27° C. continuous dark for another 7 days. Then the blocks of “Heat” group were dried by oven, and the block of “Lithium” group were dried by dehumidifier, to the same mass of the “Heat” group.
The two group of mycelium blocks were broken in the middle. In each group, 3 blocks were spread with the solution of YMG broth and the other 3 blocks with ddH2O on the broken sites. […]

The conditions of data set [1]: cited from earlier work.

Regarding `[Cl-].[Li+]` [LiCl, Lithium chloride], the “Effect on Fruiting body development” value was “No” in the data set on C. cinerea (1.5 g/L LiCl in agar); “produced only a few initials and stage 1 primordia; also recorded: Retarded” in the data set with C. cinerea (1.5 g/L LiCl under agar (concentration calculated with volume of sum of agar and H2O), 8 days); “absence of fruiting body and No” with C. cinerea (3 g/L LiCl in agar); “No” with C. cinerea (3 g/L LiCl under agar (concentration calculated with volume of sum of agar and H2O)); “No” in the data set on C. cinerea (6 g/L LiCl in agar); “No” with C. cinerea (6 g/L LiCl under agar (concentration calculated with volume of sum of agar and H2O)). The Fruiting body initiation result in the data set on C. cinerea (LiCl concentration higher than 1.5 g/L, in the following 30 days) is recorded as “No initiation was observed”. The “Fruiting body initiation, dose dependence” value in the data set with C. cinerea (LiCl in agar or under agar) is “inhibited the fruiting body initiation in a dose-dependent manner”. Also, the “Initials and fruiting bodies on mycelium blocks” value in the data set with Pleurotus djamor is “clear of initials and fruiting bodies”. For the same compound, the Solubility entry in data set [1] was “soluble in water, ethanol, acetone, pyridine and nitrobenzene”.
